Results published in patent US7217730B2, “Method for the use of pyranoindole derivatives to treat infection with Hepatitis C virus” (Wyeth, priority 2002, dated 2007).
pIC50: −log10 of the molar value.

Columns and labels:
[1] = biological target: T1, NS5B from the BK strain (genotype 1b) (Hepatitis C virus genotype 1b, UniProt P26663); assay: Hepatitis C polymerase inhibition, NS5B BK strain, 33P-GTP filter assay; type: biochemical; details: Table 1B; NS5B BK strain; read-out: BK IC50
T1 construct: NS5B from the BK strain (genotype 1b) is expressed in E. coli as a protein in which the 21 C-terminal amino acids are replaced; made in house; host or cells: E. coli
In short: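 Radiolabelled RNA synthesis was measured by filter capture and scintillation counting after EDTA stop. His-tagged, C-terminally truncated (Δ21) genotype 1b BK NS5B from E. coli, pre-exposed to compound for 15 min, copied a self-primed RNA template (~3 nM) with α-[33P]-GTP for 2 h at room temperature.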

[2] = biological target: BB7 (RNA-dependent RNA polymerase hepatitis C virus protein sequence derived from HCV replicon) (Hepatitis C virus genotype 1b, UniProt Q9WMX2); assay: Hepatitis C polymerase inhibition, BB7 sequence; type: biochemical; details: Table 1B
Chain of BB7 (RNA-dependent RNA polymerase hepatitis C virus protein sequence derived from HCV replicon) (Q9WMX2 2420-3010): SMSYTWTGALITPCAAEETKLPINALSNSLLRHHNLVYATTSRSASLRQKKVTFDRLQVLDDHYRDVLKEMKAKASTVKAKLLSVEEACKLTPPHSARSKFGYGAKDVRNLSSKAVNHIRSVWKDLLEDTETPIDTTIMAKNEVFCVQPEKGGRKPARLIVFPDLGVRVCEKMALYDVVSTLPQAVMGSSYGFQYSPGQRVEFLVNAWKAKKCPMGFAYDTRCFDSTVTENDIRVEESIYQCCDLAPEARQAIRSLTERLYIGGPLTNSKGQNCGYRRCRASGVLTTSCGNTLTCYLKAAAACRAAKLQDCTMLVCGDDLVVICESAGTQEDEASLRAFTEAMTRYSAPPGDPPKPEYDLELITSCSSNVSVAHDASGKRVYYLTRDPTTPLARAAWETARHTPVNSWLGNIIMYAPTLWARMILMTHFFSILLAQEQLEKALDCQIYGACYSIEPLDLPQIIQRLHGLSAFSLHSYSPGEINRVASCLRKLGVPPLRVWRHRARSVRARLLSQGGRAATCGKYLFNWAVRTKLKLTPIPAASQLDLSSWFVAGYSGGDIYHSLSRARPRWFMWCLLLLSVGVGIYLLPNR

T1 sequence (P26663 2420-2989): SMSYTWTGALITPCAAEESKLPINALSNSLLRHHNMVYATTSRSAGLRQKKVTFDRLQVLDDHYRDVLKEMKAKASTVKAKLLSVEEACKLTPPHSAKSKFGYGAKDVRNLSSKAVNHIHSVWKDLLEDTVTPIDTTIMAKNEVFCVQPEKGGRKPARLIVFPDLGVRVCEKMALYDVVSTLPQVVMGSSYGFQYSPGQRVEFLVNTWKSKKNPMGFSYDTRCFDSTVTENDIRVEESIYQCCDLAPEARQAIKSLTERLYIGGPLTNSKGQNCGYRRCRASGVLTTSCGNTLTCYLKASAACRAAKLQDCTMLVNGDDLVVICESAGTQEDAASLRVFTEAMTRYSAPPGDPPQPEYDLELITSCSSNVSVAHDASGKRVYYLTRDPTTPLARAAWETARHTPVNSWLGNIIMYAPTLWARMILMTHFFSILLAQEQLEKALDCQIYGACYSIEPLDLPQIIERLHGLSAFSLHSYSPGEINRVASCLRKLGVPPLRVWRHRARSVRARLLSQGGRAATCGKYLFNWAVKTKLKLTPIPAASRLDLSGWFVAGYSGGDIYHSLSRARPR

In the case of `N#Cc1ccc(F)c2[nH]c3c(c12)CCOC3(CC(=O)O)C1CCC1` (centres unmarked) [Example 307, (5-cyano-1-cyclobutyl-8-fluoro-1,3,4,9-tetrahydropyrano[3,4-b]indol-1-yl)acetic acid], the pIC50 [1] was 5.24 and the pIC50 [2] was 5.02.
With `N#Cc1ccc(F)c2[nH]c3c(c12)CCOC3(CC(=O)O)C1CCCC1` (centres unmarked) [Example 308, (5-cyano-1-cyclopentyl-8-fluoro-1,3,4,9-tetrahydropyrano[3,4-b]indol-1-yl)acetic acid] the pIC50 [1] was under 4.52 and the pIC50 [2] was under 4.52.
`N#Cc1ccc(F)c2[nH]c3c(c12)CCOC3(CC(=O)O)CC1CCCC1` (centres unmarked) [Example 310, (5-cyano-1-cyclopentylmethyl-8-fluoro-1,3,4,9-tetrahydropyrano[3,4-b]indol-1-yl)acetic acid] was tested, and the pIC50 [1] was under 4.60 and the pIC50 [2] was under 4.60.
Compound `CC[C@H](C)[C@@]1(CC(=O)O)OCCc2c1[nH]c1c(F)ccc(C#N)c21` [Example 315, (1R,10S)-[5-cyano-8-fluoro-1-(1-methylpropyl)-1,3,4,9-tetrahydropyrano[3,4-b]indol-1-yl]acetic acid] has a pIC50 [1] of 6.40 and a pIC50 [2] of 5.68.
`CC[C@H](C)[C@]1(CC(=O)O)OCCc2c1[nH]c1c(F)ccc(C#N)c21` [Example 316, (1S,10S)-[5-cyano-8-fluoro-1-(1-methylpropyl)-1,3,4,9-tetrahydropyrano[3,4-b]indol-1-yl]acetic acid] showed a pIC50 [1] of under 4.52 and a pIC50 [2] of under 4.52.
`Cc1cc(F)c(C#N)c2c3c([nH]c12)C(CC(=O)O)(C1CCC1)OCC3` (centres unmarked) [Example 317, (5-cyano-1-cyclobutyl-6-fluoro-8-methyl-1,3,4,9-tetrahydropyrano[3,4-b]indol-1-yl)acetic acid] gave a pIC50 [1] of 6.22 and a pIC50 [2] of 6.05.
`CC[C@H](C)[C@@]1(CC(=O)O)OCCc2c1[nH]c1c(C)cc(F)c(C#N)c21` [Example 319, (1R,10S)-[5-cyano-6-fluoro-8-methyl-1-(1-methylpropyl)-1,3,4,9-tetrahydropyrano[3,4-b]indol-1-yl]acetic acid] gave a pIC50 [1] of 7.22 and a pIC50 [2] of 7.10.
Work on `CC[C@H](C)[C@]1(CC(=O)O)OCCc2c1[nH]c1c(C)cc(F)c(C#N)c21` [Example 320, (1S,10S)-[5-cyano-6-fluoro-8-methyl-1-(1-methylpropyl)-1,3,4,9tetrahydropyrano[3,4-b]indol-1-yl]acetic acid] yielded a pIC50 [1] of 5.54 and a pIC50 [2] of 5.22.
Compound `CCCC1(CC(=O)O)OCCc2c1[nH]c1c(Cl)ccc(C#N)c21` (centres unmarked) [Example 321, (8-chloro-5-cyano-1-propyl-1,3,4,9-tetrahydropyrano[3,4-b]indol-1-yl)acetic acid] has a pIC50 [1] of 6.52 and a pIC50 [2] of 6.22.
Compound `CCC[C@]1(CC(=O)O)OCCc2c1[nH]c1c(Cl)ccc(C#N)c21` [Example 322, (1R)-(8-chloro-5-cyano-1-propyl-1,3,4,9-tetrahydropyrano[3,4-b]indol-1-yl)acetic acid] has a pIC50 [1] of 7.40 and a pIC50 [2] of 6.80.
In the case of `CCC[C@@]1(CC(=O)O)OCCc2c1[nH]c1c(Cl)ccc(C#N)c21` [Example 323, (1S)-(8-chloro-5-cyano-1-propyl-1,3,4,9-tetrahydropyrano[3,4-b]indol-1-yl)acetic acid], the pIC50 [1] was 5.31 and the pIC50 [2] was 4.96.
Compound `CC[C@H](C)[C@@]1(CC(=O)O)OCCc2c1[nH]c1c(Cl)ccc(C#N)c21` [Example 325, (1R,10S)-[8-Chloro-5-cyano-1-(1-methylpropyl)-1,3,4,9-tetrahydropyrano[3,4-b]indol-1yl]acetic acid] has a pIC50 [1] of 7.10 and a pIC50 [2] of 6.72.
With `CC[C@H](C)[C@]1(CC(=O)O)OCCc2c1[nH]c1c(Cl)ccc(C#N)c21` [Example 326, (1S,10S)-[8-Chloro-5-cyano-1-(1-methylpropyl)-1,3,4,9-tetrahydropyrano[3,4-b]indol-1-yl]acetic acid] the pIC50 [1] was 5.19 and the pIC50 [2] was 5.03.
`N#Cc1ccc(Cl)c2[nH]c3c(c12)CCOC3(CC(=O)O)C1CCC1` (centres unmarked) [Example 327, (8-chloro-5-cyano-1-cyclobutyl-1,3,4,9-tetrahydropyrano[3,4-b]indol-1-yl)acetic acid] gave a pIC50 [1] of 6.10 and a pIC50 [2] of 5.77.
`CCCC1(C(=O)O)OCCc2c1[nH]c1ccc(Cl)c(Cl)c21` (centres unmarked) [Example 328, (5,6-dichloro-1-propyl-1,3,4,9-tetrahydropyrano[3,4-b]indol-1-yl)carboxylic acid] showed a pIC50 [1] of 5.37 and a pIC50 [2] of 5.41.
Compound `CCCC1(C(=O)O)OCCc2c1[nH]c1c(Cl)ccc(Cl)c21` (centres unmarked) [Example 329, (5,8-dichloro-1-propyl-1,3,4,9-tetrahydropyrano[3,4-b]indol-1-yl)carboxylic acid] has a pIC50 [1] of 6.22 and a pIC50 [2] of 5.82.
`CCCC1(C(=O)O)OCCc2c1[nH]c1c(C)ccc(Cl)c21` (centres unmarked) [Example 330, (5-chloro-8-methyl-1-propyl-1,3,4,9-tetrahydropyrano[3,4-b]indol-1-yl)carboxylic acid] was tested, and the pIC50 [1] was 5.80 and the pIC50 [2] was 5.08.
Work on `CCCC1(C(=O)O)OCCc2c1[nH]c1c(Cl)ccc(C(F)(F)F)c21` (centres unmarked) [Example 331, (8-chloro-5-trifluoromethyl-1-propyl-1,3,4,9-tetrahydropyrano[3,4-b]indol-1-yl)carboxylic acid] yielded a pIC50 [1] of 6.30 and a pIC50 [2] of 5.60.
Work on `CCCC1(C(=O)O)OCCc2c1[nH]c1c(F)ccc(C(F)(F)F)c21` (centres unmarked) [Example 332, (8-fluoro-5-trifluoromethyl-1-propyl-1,3,4,9-tetrahydropyrano[3,4-b]indol-1-yl)carboxylic acid] yielded a pIC50 [1] of 5.19 and a pIC50 [2] of 4.85.
`CCCC1(C(=O)O)OCCc2c1[nH]c1c(C)ccc(C(F)(F)F)c21` (centres unmarked) [Example 333, (5-trifluoromethyl-8-methyl-1-propyl-1,3,4,9-tetrahydropyrano[3,4-b]indol-1-yl)carboxylic acid] was tested, and the pIC50 [1] was 5.89 and the pIC50 [2] was 5.12.
`CCCC1(C(=O)O)OCCc2c1[nH]c1c(C)ccc(C#N)c21` (centres unmarked) [Example 334, (5-cyano-8-methyl-1-propyl-1,3,4,9-tetrahydropyrano[3,4-b]indol-1-yl)carboxylic acid] gave a pIC50 [1] of 5.52 and a pIC50 [2] of 5.30.
Work on `Cc1ccc(C#N)c2c3c([nH]c12)C(C(=O)O)(C1CCC1)OCC3` (centres unmarked) [Example 338, (5-cyano-1-cyclobutyl-8-methyl-1,3,4,9-tetrahydropyrano[3,4-b]indol-1-yl)carboxylic acid] yielded a pIC50 [1] of 5.48 and a pIC50 [2] of 5.41.
`CCCC1(C(=O)O)OCCc2c1[nH]c1c(C)cc(F)c(C#N)c21` (centres unmarked) [Example 339, (5-cyano-6-fluoro-8-methyl-1-propyl-1,3,4,9-tetrahydropyrano[3,4-b]indol-1-yl)carboxylic acid] gave a pIC50 [1] of 6.31 and a pIC50 [2] of 5.55.
`CCCC1(C(=O)O)OCCc2c1[nH]c1c(CC)ccc(C#N)c21` (centres unmarked) [Example 340, (5-cyano-8-ethyl-1-propyl-1,3,4,9-tetrahydropyrano[3,4-b]indol-1-yl)carboxylic acid] was tested, and the pIC50 [1] was under 4.52 and the pIC50 [2] was under 4.55.
Compound `CCCC1(C(=O)O)OCCc2c1[nH]c1c(Cl)ccc(C#N)c21` (centres unmarked) [Example 341, (8-chloro-5-cyano-1-propyl-1,3,4,9-tetrahydropyrano[3,4-b]indol-1-yl)carboxylic acid] has a pIC50 [1] of 5.77 and a pIC50 [2] of 5.44.
`CCCC1(C(=O)O)OCCc2c1[nH]c1c(F)ccc(C#N)c21` (centres unmarked) [Example 342, (5-cyano-8-fluoro-1-propyl-1,3,4,9-tetrahydropyrano[3,4-b]indol-1-yl)carboxylic acid] was tested, and the pIC50 [1] was 5.77 and the pIC50 [2] was 5.00.
In the case of `CCC[C@@]1(C(=O)O)OCCc2c1[nH]c1c(F)ccc(C#N)c21` [Example 343, (1R)-(5-cyano-8-fluoro-1-propyl-1,3,4,9-tetrahydropyrano[3,4-b]-indol 1-yl)carboxylic acid], the pIC50 [1] was under 4.52 and the pIC50 [2] was under 4.52.
`CCCCC1(C(=O)O)OCCc2c1[nH]c1c(F)ccc(C#N)c21` (centres unmarked) [Example 345, (1-butyl-5-cyano-8-fluoro-1,3,4,9-tetrahydropyrano[3,4-b]indol-1-yl)carboxylic acid] was tested, and the pIC50 [1] was 5.47 and the pIC50 [2] was 5.21.
Work on `C=CCCC1(C(=O)O)OCCc2c1[nH]c1c(F)ccc(C#N)c21` (centres unmarked) [Example 346, [1-(3-butenyl)-5-cyano-8-fluoro-1,3,4,9-tetrahydropyrano[3,4-b]indol-1-yl]carboxylic acid] yielded a pIC50 [1] of 5.21 and a pIC50 [2] of 5.10.
With `N#Cc1ccc(F)c2[nH]c3c(c12)CCOC3(C(=O)O)C1CCCC1` (centres unmarked) [Example 350, (5-cyano-1-cyclopentyl-8-fluoro-1,3,4,9-tetrahydropyrano[3,4-b]indol-1-yl)carboxylic acid] the pIC50 [1] was under 4.52 and the pIC50 [2] was under 4.52.
For `N#Cc1ccc(F)c2[nH]c3c(c12)CCOC3(C(=O)O)C1CCCCC1` (centres unmarked) [Example 351, (5-cyano-1-cyclohexyl-8-fluoro-1,3,4,9-tetrahydropyrano[3,4-b]indol-1-yl)carboxylic acid], the pIC50 [1] was under 4.52 and the pIC50 [2] was under 4.52.
With `CCCC1(CC(=O)O)OCCc2c1[nH]c1c(C)c(C(=O)O)cc(C#N)c21` (centres unmarked) [Example 353, 1-carboxymethyl-5-cyano-8-methyl-1-propyl-1,3,4,9 tetrahydro-pyrano[3,4-b]indole-7-carboxylic acid] the pIC50 [1] was 5.70 and the pIC50 [2] was 6.09.
In the case of `CCCNC(=O)c1cc(C#N)c2c3c([nH]c2c1C)C(CCC)(CC(=O)O)OCC3` (centres unmarked) [Example 354, (5-cyano-8-methyl-1-propyl-7-propylcarbamoyl-1,3,4,9-tetrahydro-pyrano[3,4-b]indol-1-yl)-acetic acid], the pIC50 [1] was 5.52 and the pIC50 [2] was 5.70.
`CCCC1(CC(=O)O)OCCc2c1[nH]c1c(C)c(C(=O)NC(C)C)cc(C#N)c21` (centres unmarked) [Example 355, (5-cyano-7-isopropylcarbamoyl-8-methyl-1-propyl-1,3,4,9-tetrahydro-pyrano[3,4-b]indol-1-yl)-acetic acid] gave a pIC50 [1] of 5.29 and a pIC50 [2] of 5.54.
